Laboratory results reported in patent US20190264146A1, “An Antimicrobial Composition” (priority 2015, published 2019).

Tests used:
Test in all cases: Microdilution test (MIC/MBC)
Format in all cases: cell-based
Details in all cases: lower line of pair, sub-cultivation 72 h
S. typhimurium = tested on: S. typhimurium
Procedure: (§1) Minimum inhibitory concentration (MIC) is the lowest concentration of an antimicrobial that will inhibit the visible growth of a microorganism after overnight incubation. Minimum inhibitory concentrations are important in diagnostic laboratories to confirm resistance of microorganisms to an antimicrobial agent and to monitor the activity of new antimicrobial agents. A MIC is the most basic laboratory measurement of the activity of an antimicrobial agent against an organism.
(§2) The minimum inhibitory and bactericidal concentrations (MICs and MBCs) can be determined using 96-well microtitre plates. The bacterial suspension is adjusted with sterile saline to a concentration of 1.0×10^5 cfu/m L. Compounds to be investigated are dissolved in broth LB medium (100 μL) with bacterial inoculum (1.0×10^4 cfu per well) to achieve the wanted concentrations (0.02-15.0 μL g/mL). The microplates are incubated for 24 h at 28° C. […] The MBCs are determined by serial sub-cultivation of 2 μL into microtitre plates containing 100 μL of broth per well and further incubation for 72 h. The lowest concentration with no visible growth is defined as the MBC, indicating 99.5% killing of the original inoculum. The optical density of each well is measured at a wavelength of 655 nm by Microplate manager 4.0 (Bio-Rad Laboratories) and compared with a blank and the positive control. Streptomycin is used as a positive control using the same concentrations as in the disc diffusion test. Two replicates were done for each oil and each component.

E. cloacae = tested on: E. cloacae
Procedure: as §1, §2

P. aeruginosa = tested on: P. aeruginosa
Procedure: as §1, §2

S. enteritidis = tested on: S. enteritidis
Procedure: as §1, §2

S. aureus = tested on: S. aureus
Procedure: as §1, §2

P. mirabilis = tested on: P. mirabilis
Procedure: as §1, §2

B. subtilis = tested on: B. subtilis
Procedure: as §1, §2

L. monocytogenes = tested on: L. monocytogenes
Procedure: as §1, §2

S. epidermidis = tested on: S. epidermidis
Procedure: as §1, §2

E. coli = tested on: E. coli
Procedure: as §1, §2

M. flavus = tested on: M. flavus
Procedure: as §1, §2

## CC12CCC(CC1)C(C)(C)O2 [1,8 cineole (eucalyptol)]
S. typhimurium
  MBC: 6.0 μL g/mL
E. cloacae
  MBC: 8.0 μL g/mL
P. aeruginosa
  MBC: 9.0 μL g/mL
S. enteritidis
  MBC: 6.0 μL g/mL
S. aureus
  MBC: 6.0 μL g/mL
P. mirabilis
  MBC: 8.0 μL g/mL
B. subtilis
  MBC: 5.0 μL g/mL
L. monocytogenes
  MBC: 6.0 μL g/mL
S. epidermidis
  MBC: 5.0 μL g/mL
E. coli
  MBC: 8.0 μL g/mL
M. flavus
  MBC: 5.0 μL g/mL

## C=C(C)[C@H]1CC=C(C)CC1 [Limonene]
S. typhimurium
  MBC: 10.0 μL g/mL
E. cloacae
  MBC: 10.0 μL g/mL
P. aeruginosa
  MBC: 15.0 μL g/mL
S. enteritidis
  MBC: 10.0 μL g/mL
S. aureus
  MBC: 8.0 μL g/mL
P. mirabilis
  MBC: 15.0 μL g/mL
B. subtilis
  MBC: 7.0 μL g/mL
L. monocytogenes
  MBC: 10.0 μL g/mL
S. epidermidis
  MBC: 8.0 μL g/mL
E. coli
  MBC: 12.0 μL g/mL
M. flavus
  MBC: 7.0 μL g/mL

## C=C1CCC2CC1C2(C)C (stereo not drawn) [beta pinene]
S. typhimurium
  MBC: 9.0 μL g/mL
E. cloacae
  MBC: 10.0 μL g/mL
P. aeruginosa
  MBC: 13.0 μL g/mL
S. enteritidis
  MBC: 9.0 μL g/mL
S. aureus
  MBC: 7.5 μL g/mL
P. mirabilis
  MBC: 10.0 μL g/mL
B. subtilis
  MBC: 6.0 μL g/mL
L. monocytogenes
  MBC: 10.0 μL g/mL
S. epidermidis
  MBC: 6.5 μL g/mL
E. coli
  MBC: 10.0 μL g/mL
M. flavus
  MBC: 5.5 μL g/mL
